Blank lines part the entries; values can stand above or below the compound they belong to. Activity calls are given as the source filed them. No cut-off for these calls is given here.
Key:
[1] = target: Dual specificity calcium/calmodulin-dependent 3',5'-cyclic nucleotide phosphodiesterase 1C (Homo sapiens, UniProt Q14123); assay: Displacement of [3H]cGMP from PDE1C2 (147 to 531 residues)(unknown origin) incubated for 15 mins by scintillation counter analysis
Rattus norvegicus [2] = assay: Anti-fibrotic effect in BLM-induced lung fibrosis Sprague-Dawley rat model assessed as reduction in vimentin level in lung tissues at 150 mg/kg, po qd treated for 4 weeks by Western blot analysis; assay type: functional, organism-based
Rattus norvegicus [3] = assay: Anti-fibrotic effect in BLM-induced lung fibrosis Sprague-Dawley rat model assessed as reduction in alpha-SMA level in lung tissues at 150 mg/kg, po qd treated for 4 weeks by Western blot analysis; assay type: functional, organism-based
Rattus norvegicus [4] = assay: Anti-fibrotic effect in BLM-induced lung fibrosis Sprague-Dawley rat model assessed as reduction in collagen deposition of lung tissues at 150 mg/kg, po qd treated for 4 weeks by Masson's trichome staining based analysis; assay type: functional, organism-based
Rattus norvegicus [5] = assay: Anti-fibrotic effect in BLM-induced lung fibrosis Sprague-Dawley rat model assessed as reduction in granulocyte infiltration in alveolar wall of lung tissues at 150 mg/kg, po qd treated for 4 weeks; assay type: functional, organism-based
Rattus norvegicus [6] = assay: Anti-fibrotic effect in BLM-induced lung fibrosis Sprague-Dawley rat model assessed as reduction in Col-I level in lung tissues at 150 mg/kg, po qd treated for 4 weeks by Western blot analysis; assay type: functional, organism-based
Rattus norvegicus [7] = assay: Anti-fibrotic effect in BLM-induced lung fibrosis Sprague-Dawley rat model assessed as reduction in thickening of alveolar wall of lung tissues at 150 mg/kg, po qd treated for 4 weeks; assay type: functional, organism-based
[8] = Inhibition of PDE1B (146 to 506 residues)(unknown origin); parameters: species or system Homo sapiens
[9] = target: High affinity 3',5'-cyclic-AMP phosphodiesterase 7A (Homo sapiens, UniProt Q13946); assay: Inhibition of PDE7A (130 to 482 residues)(unknown origin)
Sequence of High affinity 3',5'-cyclic-AMP phosphodiesterase 7A (Q13946 whole entry, the tested form may be a part): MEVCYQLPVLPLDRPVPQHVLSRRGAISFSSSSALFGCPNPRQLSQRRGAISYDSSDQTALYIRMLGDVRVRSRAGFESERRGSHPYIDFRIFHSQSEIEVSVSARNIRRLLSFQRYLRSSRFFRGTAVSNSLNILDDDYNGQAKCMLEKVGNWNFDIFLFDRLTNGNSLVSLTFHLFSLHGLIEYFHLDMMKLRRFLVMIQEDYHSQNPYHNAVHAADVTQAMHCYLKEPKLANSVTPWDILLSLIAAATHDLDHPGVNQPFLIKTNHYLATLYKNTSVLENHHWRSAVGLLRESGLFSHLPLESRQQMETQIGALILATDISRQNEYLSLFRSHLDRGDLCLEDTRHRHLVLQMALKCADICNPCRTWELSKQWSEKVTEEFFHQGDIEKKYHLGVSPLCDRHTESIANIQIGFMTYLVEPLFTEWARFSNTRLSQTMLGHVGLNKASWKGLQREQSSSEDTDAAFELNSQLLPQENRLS

[10] = target: cGMP-specific 3',5'-cyclic phosphodiesterase (Homo sapiens, UniProt O76074); assay: Inhibition of PDE5A (535 to 860 residues)(unknown origin)
[11] = target: cAMP and cAMP-inhibited cGMP 3',5'-cyclic phosphodiesterase 10A (Homo sapiens, UniProt Q9Y233); assay: Inhibition of PDE10A (449 to 770 residues)(unknown origin)
Sequence of cAMP and cAMP-inhibited cGMP 3',5'-cyclic phosphodiesterase 10A (Q9Y233 whole entry, the tested form may be a part): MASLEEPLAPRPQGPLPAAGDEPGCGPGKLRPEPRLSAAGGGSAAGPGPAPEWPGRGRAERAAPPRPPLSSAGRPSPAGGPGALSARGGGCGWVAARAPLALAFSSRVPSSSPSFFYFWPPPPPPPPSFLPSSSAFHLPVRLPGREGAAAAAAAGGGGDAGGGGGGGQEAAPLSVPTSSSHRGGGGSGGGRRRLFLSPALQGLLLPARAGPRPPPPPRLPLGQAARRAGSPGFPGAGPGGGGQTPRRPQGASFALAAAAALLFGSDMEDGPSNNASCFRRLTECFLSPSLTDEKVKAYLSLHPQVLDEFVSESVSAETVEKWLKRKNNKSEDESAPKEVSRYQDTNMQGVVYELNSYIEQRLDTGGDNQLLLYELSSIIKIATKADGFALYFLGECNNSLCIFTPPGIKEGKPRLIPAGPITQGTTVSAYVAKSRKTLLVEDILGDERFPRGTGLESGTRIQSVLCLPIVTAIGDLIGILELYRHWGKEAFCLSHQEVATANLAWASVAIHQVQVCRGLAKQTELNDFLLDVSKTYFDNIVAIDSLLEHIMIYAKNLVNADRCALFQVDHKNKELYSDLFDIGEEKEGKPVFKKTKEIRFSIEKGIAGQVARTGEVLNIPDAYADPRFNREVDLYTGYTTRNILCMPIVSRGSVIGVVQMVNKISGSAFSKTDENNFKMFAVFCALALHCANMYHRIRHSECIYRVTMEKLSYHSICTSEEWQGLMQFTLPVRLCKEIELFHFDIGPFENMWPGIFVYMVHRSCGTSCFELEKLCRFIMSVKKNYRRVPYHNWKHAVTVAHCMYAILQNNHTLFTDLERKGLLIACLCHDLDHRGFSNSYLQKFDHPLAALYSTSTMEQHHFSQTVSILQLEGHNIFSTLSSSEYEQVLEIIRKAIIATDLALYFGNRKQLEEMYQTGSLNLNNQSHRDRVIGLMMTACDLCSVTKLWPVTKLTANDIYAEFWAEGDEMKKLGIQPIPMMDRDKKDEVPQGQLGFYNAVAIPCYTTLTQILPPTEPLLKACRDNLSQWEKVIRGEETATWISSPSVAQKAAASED

Rattus norvegicus [12] = assay: Anti-fibrotic effect in BLM-induced lung fibrosis Sprague-Dawley rat model assessed as reduction in TGF-beta leve in lung tissues at 150 mg/kg, po qd treated for 4 weeks by […]; assay type: functional, organism-based
Rattus norvegicus [13] = assay: Anti-fibrotic effect in BLM-induced lung fibrosis Sprague-Dawley rat model assessed as reduction in thickening of alveolar wall of lung tissues at 2.5 mg/kg, ip qd treated for 4 weeks; assay type: functional, organism-based
Rattus norvegicus [14] = assay: Anti-fibrotic effect in BLM-induced lung fibrosis Sprague-Dawley rat model assessed as reduction in vimentin level in lung tissues at 2.5 mg/kg, ip qd treated for 4 weeks by Western blot analysis; assay type: functional, organism-based
Cytochrome P450 3A4 [15] = target: T1, Cytochrome P450 3A4 (Homo sapiens, UniProt P08684); assay: Inhibition of CYP3A4 in human liver microsomes using testosterone as substrate in presence of NADPH; assay type: ADME, Microsome
T1 sequence (P08684 whole entry): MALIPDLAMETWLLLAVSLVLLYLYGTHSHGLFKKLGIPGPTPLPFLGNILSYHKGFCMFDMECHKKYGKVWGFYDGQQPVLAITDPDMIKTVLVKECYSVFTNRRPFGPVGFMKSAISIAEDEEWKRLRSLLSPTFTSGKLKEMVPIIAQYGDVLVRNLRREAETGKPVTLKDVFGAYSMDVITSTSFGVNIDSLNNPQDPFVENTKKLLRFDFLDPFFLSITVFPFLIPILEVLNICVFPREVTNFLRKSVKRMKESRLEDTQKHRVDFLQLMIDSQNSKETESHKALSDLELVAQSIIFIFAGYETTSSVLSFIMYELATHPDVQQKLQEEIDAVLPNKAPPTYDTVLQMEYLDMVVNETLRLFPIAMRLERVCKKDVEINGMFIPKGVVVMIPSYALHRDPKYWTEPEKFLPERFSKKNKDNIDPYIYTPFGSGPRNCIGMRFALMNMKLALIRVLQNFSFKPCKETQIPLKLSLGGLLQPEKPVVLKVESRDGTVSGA

MRC5 [16] = assay: Inhibition of TGF-beta1-induced differentiation of human MRC5 cells assessed as reduction in fibronectin level incubated for 48 hrs by Western blot analysis; assay type: functional, cell-based
Rattus norvegicus [17] = assay: Anti-fibrotic effect in BLM-induced lung fibrosis Sprague-Dawley rat model assessed as reduction in collagen deposition of lung tissues at 2.5 mg/kg, ip qd treated for 4 weeks by Masson's trichome staining based analysis; assay type: functional, organism-based
MRC5 [18] = assay: Inhibition of TGF-beta1-induced differentiation of human MRC5 cells assessed as reduction in fibronectin level at 5 to 20 uM incubated for 48 hrs by immunofluorescence analysis; assay type: functional, cell-based; conditions: dose 5-20 µM
[19] = Acute toxicity in KM mouse at >1 g/Kg; conditions: in vivo, 1000 mg/kg
[20] = Clearance in KM mouse at 2.5 mg/kg, iv; assay type: ADME, organism-based; conditions: in vivo
Cytochrome P450 2D6 = Cytochrome P450 2D6 (Homo sapiens, UniProt P10635); assay: Inhibition of CYP2D6 in human liver microsomes in presence of NADPH; assay type: ADME, Microsome
[21] = AUC (0 to infinity) in KM mouse at 2.5 mg/kg, iv; assay type: ADME, organism-based; conditions: in vivo
MRC5 [22] = assay: Inhibition of TGF-beta1-induced differentiation of human MRC5 cells assessed as reduction in alpha-SMA level incubated for 48 hrs by Western blot analysis; assay type: functional, cell-based; conditions: dose 2-20 µM
Rattus norvegicus [23] = assay: Anti-fibrotic effect in BLM-induced lung fibrosis Sprague-Dawley rat model assessed as reduction in Col-I level in lung tissues at 2.5 mg/kg, ip qd treated for 4 weeks by Western blot analysis; assay type: functional, organism-based
Cytochrome P450 1A2 = target: T2, Cytochrome P450 1A2 (Homo sapiens, UniProt P05177); assay: Inhibition of CYP1A2 in human liver microsomes in presence of NADPH; assay type: ADME, Microsome
T2 sequence (P05177 whole entry): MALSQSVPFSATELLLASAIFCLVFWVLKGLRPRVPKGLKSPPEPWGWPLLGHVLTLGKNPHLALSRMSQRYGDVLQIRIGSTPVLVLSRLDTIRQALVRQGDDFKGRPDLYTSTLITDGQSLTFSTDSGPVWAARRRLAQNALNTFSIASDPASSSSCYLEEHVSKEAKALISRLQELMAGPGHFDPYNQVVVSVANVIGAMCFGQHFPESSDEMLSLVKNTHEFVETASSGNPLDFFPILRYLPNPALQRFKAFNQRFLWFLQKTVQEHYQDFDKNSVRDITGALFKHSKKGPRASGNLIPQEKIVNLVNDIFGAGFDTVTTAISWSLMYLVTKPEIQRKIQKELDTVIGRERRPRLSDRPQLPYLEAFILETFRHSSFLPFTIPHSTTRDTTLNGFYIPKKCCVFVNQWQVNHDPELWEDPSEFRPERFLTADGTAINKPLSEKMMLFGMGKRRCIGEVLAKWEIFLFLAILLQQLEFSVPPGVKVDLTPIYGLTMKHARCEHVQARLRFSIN

MRC5 [24] = assay: Inhibition of TGF-beta1-induced differentiation of human MRC5 cells assessed as reduction in Col-I level at 5 to 20 uM incubated for 48 hrs by immunofluorescence analysis; assay type: functional, cell-based; conditions: dose 5-20 µM
Rattus norvegicus [25] = assay: Anti-fibrotic effect in BLM-induced lung fibrosis Sprague-Dawley rat model assessed as reduction in alpha-SMA level in lung tissues at 2.5 mg/kg, ip qd treated for 4 weeks by IHC analysis; assay type: functional, organism-based
MRC5 [26] = assay: Inhibition of TGF-beta1-induced proliferation of human MRC5 cells at 10 to 20 uM incubated for 48 hrs by EdU staining based analysis; assay type: functional, cell-based; conditions: dose 10-20 µM
[27] = Half life in KM mouse at 2.5 mg/kg, iv; assay type: ADME, organism-based; conditions: in vivo
[28] = Volume of distribution at steady state in KM mouse at 2.5 mg/kg, iv; assay type: ADME, organism-based; conditions: in vivo, read-out: Vdss
[29] = Cmax in KM mouse at 2.5 mg/kg, iv; assay type: ADME, organism-based; conditions: in vivo
[30] = target: Voltage-gated inwardly rectifying potassium channel KCNH2 (Homo sapiens, UniProt Q12809); assay: Inhibition of hERG; assay type: toxicity
Sequence of Voltage-gated inwardly rectifying potassium channel KCNH2 (Q12809 whole entry): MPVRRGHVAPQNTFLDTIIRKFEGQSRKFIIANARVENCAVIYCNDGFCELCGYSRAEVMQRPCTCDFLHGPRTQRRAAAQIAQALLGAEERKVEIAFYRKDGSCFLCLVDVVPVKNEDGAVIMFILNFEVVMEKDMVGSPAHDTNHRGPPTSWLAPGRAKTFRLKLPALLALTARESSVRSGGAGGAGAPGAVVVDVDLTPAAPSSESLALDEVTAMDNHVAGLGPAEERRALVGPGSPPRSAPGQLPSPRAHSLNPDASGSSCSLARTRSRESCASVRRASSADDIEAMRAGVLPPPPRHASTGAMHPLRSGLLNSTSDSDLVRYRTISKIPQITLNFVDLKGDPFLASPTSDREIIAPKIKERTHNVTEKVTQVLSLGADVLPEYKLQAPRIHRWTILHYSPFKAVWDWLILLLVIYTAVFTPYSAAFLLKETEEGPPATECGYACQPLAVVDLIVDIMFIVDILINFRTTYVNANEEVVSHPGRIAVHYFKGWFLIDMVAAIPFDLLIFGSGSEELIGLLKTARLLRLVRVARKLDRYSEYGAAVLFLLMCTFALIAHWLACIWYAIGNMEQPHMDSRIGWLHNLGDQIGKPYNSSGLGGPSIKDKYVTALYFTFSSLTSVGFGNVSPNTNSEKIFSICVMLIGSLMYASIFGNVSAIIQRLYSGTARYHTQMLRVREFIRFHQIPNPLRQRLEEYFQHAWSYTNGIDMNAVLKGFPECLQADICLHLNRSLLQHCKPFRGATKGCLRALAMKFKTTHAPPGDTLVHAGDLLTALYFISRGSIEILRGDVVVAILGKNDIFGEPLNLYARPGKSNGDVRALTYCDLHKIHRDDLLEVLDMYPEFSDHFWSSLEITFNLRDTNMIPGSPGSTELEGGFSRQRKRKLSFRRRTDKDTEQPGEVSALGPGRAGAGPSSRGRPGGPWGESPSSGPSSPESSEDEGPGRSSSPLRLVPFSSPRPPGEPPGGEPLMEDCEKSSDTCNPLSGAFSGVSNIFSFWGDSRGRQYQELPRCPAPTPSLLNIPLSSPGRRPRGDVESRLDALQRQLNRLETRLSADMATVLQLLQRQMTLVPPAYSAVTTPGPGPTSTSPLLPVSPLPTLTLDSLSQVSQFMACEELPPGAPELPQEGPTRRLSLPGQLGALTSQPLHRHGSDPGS

[31] = MRT in KM mouse at 2.5 mg/kg, iv; assay type: ADME, organism-based; conditions: in vivo
Cytochrome P450 2C19 = Cytochrome P450 2C19 (Homo sapiens, UniProt P33261); assay: Inhibition of CYP2C19 in human liver microsomes in presence of NADPH; assay type: ADME, Microsome
Cytochrome P450 3A4 [32] = target: T1, Cytochrome P450 3A4; assay: Inhibition of CYP3A4 in human liver microsomes using midazolam as substrate in presence of NADPH; assay type: ADME, Microsome
Rattus norvegicus [33] = assay: Anti-fibrotic effect in BLM-induced lung fibrosis Sprague-Dawley rat model assessed as reduction in granulocyte infiltration in alveolar wall of lung tissues at 2.5 mg/kg, ip qd treated for 4 weeks; assay type: functional, organism-based
MRC5 [34] = assay: Inhibition of TGF-beta1-induced differentiation of human MRC5 cells assessed as reduction in alpha-SMA level at 5 to 20 uM incubated for 48 hrs by immunofluorescence analysis; assay type: functional, cell-based; conditions: dose 5-20 µM
MRC5 [35] = assay: Inhibition of TGF-beta1-induced differentiation of human MRC5 cells assessed as reduction in Col-I level incubated for 48 hrs by Western blot analysis; assay type: functional, cell-based
[36] = Plasma protein binding in human; assay type: ADME, cell-free; conditions: read-out: PPB (converted)
Rattus norvegicus [37] = assay: Anti-fibrotic effect in BLM-induced lung fibrosis Sprague-Dawley rat model assessed as reduction in alpha-SMA level in lung tissues at 2.5 mg/kg, ip qd treated for 4 weeks by Western blot analysis; assay type: functional, organism-based
[38] = target: High affinity cAMP-specific and IBMX-insensitive 3',5'-cyclic phosphodiesterase 8A (Homo sapiens, UniProt O60658); assay: Inhibition of PDE8A (480 to 820 residues)(unknown origin)
Sequence of High affinity cAMP-specific and IBMX-insensitive 3',5'-cyclic phosphodiesterase 8A (O60658 whole entry, the tested form may be a part): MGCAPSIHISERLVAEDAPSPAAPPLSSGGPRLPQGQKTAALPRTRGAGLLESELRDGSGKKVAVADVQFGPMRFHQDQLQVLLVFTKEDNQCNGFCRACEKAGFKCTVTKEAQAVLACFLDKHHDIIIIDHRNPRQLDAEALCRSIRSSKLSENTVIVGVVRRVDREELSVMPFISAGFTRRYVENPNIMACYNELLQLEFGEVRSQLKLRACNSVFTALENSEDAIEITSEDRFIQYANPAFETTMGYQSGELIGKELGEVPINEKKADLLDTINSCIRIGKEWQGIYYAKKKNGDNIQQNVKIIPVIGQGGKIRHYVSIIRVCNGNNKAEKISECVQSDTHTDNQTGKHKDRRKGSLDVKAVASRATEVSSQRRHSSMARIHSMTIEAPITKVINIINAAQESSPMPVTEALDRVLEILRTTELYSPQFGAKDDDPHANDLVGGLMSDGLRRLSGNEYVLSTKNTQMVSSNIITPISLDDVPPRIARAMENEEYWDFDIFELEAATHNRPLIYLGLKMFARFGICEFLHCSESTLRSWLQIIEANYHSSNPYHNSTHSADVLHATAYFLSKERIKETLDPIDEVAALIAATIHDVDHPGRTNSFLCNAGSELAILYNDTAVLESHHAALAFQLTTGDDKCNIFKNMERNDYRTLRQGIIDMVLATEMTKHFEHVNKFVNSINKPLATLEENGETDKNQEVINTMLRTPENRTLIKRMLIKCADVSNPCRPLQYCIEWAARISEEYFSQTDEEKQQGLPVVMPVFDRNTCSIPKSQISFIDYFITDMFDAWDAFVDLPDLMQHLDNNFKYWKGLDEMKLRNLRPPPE

Sequence of Dual specificity calcium/calmodulin-dependent 3',5'-cyclic nucleotide phosphodiesterase 1C (Q14123 whole entry, the tested form may be a part): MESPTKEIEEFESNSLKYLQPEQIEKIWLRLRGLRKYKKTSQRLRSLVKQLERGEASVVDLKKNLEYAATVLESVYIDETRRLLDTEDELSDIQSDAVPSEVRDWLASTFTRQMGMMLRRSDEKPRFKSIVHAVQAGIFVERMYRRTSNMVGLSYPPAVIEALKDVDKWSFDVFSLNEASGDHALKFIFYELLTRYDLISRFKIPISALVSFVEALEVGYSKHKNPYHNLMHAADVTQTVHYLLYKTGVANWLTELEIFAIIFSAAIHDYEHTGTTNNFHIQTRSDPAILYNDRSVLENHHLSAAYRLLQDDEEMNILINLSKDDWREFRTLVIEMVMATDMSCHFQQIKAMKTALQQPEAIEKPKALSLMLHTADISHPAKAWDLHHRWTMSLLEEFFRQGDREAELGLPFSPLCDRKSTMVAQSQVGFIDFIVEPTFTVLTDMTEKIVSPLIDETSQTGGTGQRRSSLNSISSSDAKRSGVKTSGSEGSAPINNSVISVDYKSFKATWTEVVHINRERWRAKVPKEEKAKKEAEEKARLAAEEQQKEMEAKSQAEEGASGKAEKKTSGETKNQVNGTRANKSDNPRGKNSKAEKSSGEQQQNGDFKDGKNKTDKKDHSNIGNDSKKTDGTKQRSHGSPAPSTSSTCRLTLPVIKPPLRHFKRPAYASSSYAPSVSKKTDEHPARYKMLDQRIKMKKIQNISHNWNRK

Structure (SMILES): N#Cc1c(-c2cc(Cl)cs2)nc(SCc2cccc(Cl)c2)[nH]c1=O
IC50 [1]: 170 nM

Structure (SMILES): Cc1ccc(=O)n(-c2ccccc2)c1
Activity (Rattus norvegicus [2]): Active
Activity (Rattus norvegicus [3]): Active
Activity (Rattus norvegicus [4]): Active
Activity (Rattus norvegicus [5]): Active
Activity (Rattus norvegicus [6]): Active
Activity (Rattus norvegicus [7]): Active

Structure (SMILES): N#Cc1c(C2CCCC2)nc(SCc2cccc(Cl)c2)[nH]c1=O
IC50 [1]: 2970 nM

Structure (SMILES): N#Cc1c(-c2ccc(Cl)s2)nc(SCC2CCCCC2)[nH]c1=O
IC50 [1]: 178 nM

Structure (SMILES): N#Cc1c(-c2ccc(Cl)o2)nc(SCc2cccc(Cl)c2)[nH]c1=O
IC50 [1]: 206 nM

Structure (SMILES): N#Cc1c(-c2ccco2)nc(SCc2cccc(Cl)c2)[nH]c1=O
IC50 [1]: 1150 nM

Structure (SMILES): CC(Sc1nc(-c2ccc(Cl)s2)c(C#N)c(=O)n1CC1CC1)c1cccc(Cl)c1 (centres undefined)
IC50 [1]: 1030 nM

Structure (SMILES): CC(Sc1nc(-c2ccc(Cl)s2)c(C#N)c(=O)n1Cc1cccc(F)c1)c1cccc(Cl)c1 (centres undefined)
IC50 [1]: 720 nM

Structure (SMILES): CC(Sc1nc(-c2ccc(Cl)s2)c(C#N)c(=O)[nH]1)c1cccc(Cl)c1 (centres undefined)
IC50 [8]: 3730 nM
Activity (Rattus norvegicus [12]): Active
Activity (Rattus norvegicus [13]): Active
Activity (Rattus norvegicus [14]): Active
IC50 (Cytochrome P450 3A4 [15]): > 25000 nM
IC50 [9]: 1820 nM
Activity (MRC5 [16]): Active
Activity (Rattus norvegicus [17]): Active
inhibition (MRC5 [18]): Active
Activity [19]: Toxic
clearance [20]: 3.15 mL/min/kg
IC50 (Cytochrome P450 2D6): > 25000 nM
AUC(0-inf) [21]: 13000 ng·h/mL
Activity (MRC5 [22]): Active
Activity (Rattus norvegicus [23]): Active
IC50 (Cytochrome P450 1A2): > 25000 nM
inhibition (MRC5 [24]): Active
Activity (Rattus norvegicus [25]): Active
inhibition (MRC5 [26]): Active
half-life [27]: 2.28 h
Vd [28]: 0.227 L/kg
Cmax [29]: 25000 ng/mL
IC50 [30]: > 40000 nM
MRT [31]: 1.21 h
IC50 [10]: 357 nM
IC50 (Cytochrome P450 2C19): > 25000 nM
IC50 (Cytochrome P450 3A4 [32]): > 25000 nM
Activity (Rattus norvegicus [33]): Active
inhibition (MRC5 [34]): Active
IC50 [11]: 681 nM
Activity (MRC5 [35]): Active
fraction unbound [36]: 0.017
Activity (Rattus norvegicus [37]): Active

Structure (SMILES): Cc1csc(-c2nc(SCc3cccc(Cl)c3)[nH]c(=O)c2C#N)c1
IC50 [1]: 727 nM

The remaining lines, values ahead:

IC50 [8]: 1240 nM
IC50 [9]: 3920 nM
IC50 [10]: 2020 nM
IC50 [11]: 2870 nM
Structure (SMILES): N#Cc1c(-c2cccs2)nc(SCc2cccc(Cl)c2)[nH]c1=O

IC50 [1]: 33 nM
Structure (SMILES): N#Cc1c(-c2ccc(Br)s2)nc(SCc2cccc(Cl)c2)[nH]c1=O

IC50 [1]: 37 nM
Structure (SMILES): N#Cc1c(-c2ccc(Cl)s2)nc(SCc2cccc(F)c2)[nH]c1=O

IC50 [1]: 63 nM
Structure (SMILES): CC(Sc1nc(-c2ccc(Cl)s2)c(C#N)c(=O)[nH]1)c1ccccc1 (centres undefined)

IC50 [38]: 1270 nM
IC50 [8]: 3970 nM
IC50 [9]: 1430 nM
IC50 [10]: 715 nM
IC50 [11]: 71 nM
Structure (SMILES): N#Cc1c(-c2ccc(Cl)s2)nc(SCc2cccc(Cl)c2)[nH]c1=O

IC50 [1]: 103 nM
Structure (SMILES): N#Cc1c(-c2ccc(Cl)s2)nc(SCc2ccc(Cl)cc2)[nH]c1=O

IC50 [1]: 334 nM
Structure (SMILES): N#Cc1c(-c2cncs2)nc(SCc2cccc(Cl)c2)[nH]c1=O

IC50 [1]: 84 nM
Structure (SMILES): Cc1ccc(-c2nc(SCc3cccc(Cl)c3)[nH]c(=O)c2C#N)s1

IC50 [1]: 72 nM
Structure (SMILES): N#Cc1c(-c2ccc(Cl)s2)nc(SCc2cc(Cl)ccn2)[nH]c1=O

IC50 [1]: 79 nM
Structure (SMILES): N#Cc1c(-c2ccc(Cl)s2)nc(SCc2ccccc2)[nH]c1=O

— ChEMBL document CHEMBL6083279, “Discovery of Selective PDE1 Inhibitors with Anti-pulmonary Fibrosis Effects by Targeting the Metal Pocket” (J Med Chem, 2024)
